pIC50: −log10 of the molar value. In brackets after ≈: the same amount, converted by molar mass. Entries after “also recorded” stand apart in the source; their conditions may differ. Like-named read-outs stand apart in the source and are kept apart here.
Experiments:
[1] = tested on: Leishmania tarentolae; assay: Anti-protozoal activity, cell counts of Leishmania tarentolae; format: cell-based; settings: for activity at 0.1 µM / activity at 0.25 µM / activity at 0.5 µM / activity at 1 µM / activity at 2.5 µM: Leishmania tarentolae, read-out: % control
Method: Leishmania tarentolae was grown in BHI (brain heart infusion; Difco) supplemented with 10 μg/ml of hemin. Leishmanial cells were counted by doing a 1:1 dilution of the cells with 3% formaldehyde/1×SSC (0.15 M NaCl/0.015 M sodium citrate) solution. Cells were seeded at log phase (0.5-1×10^6 cells/ml) in T-25 cm^2 flasks. Equal volumes of HHC at different concentrations (0.1, 0.25, 0.5, 1.0, 2.5 μM) were added to the cells. DMSO at the same volume as that used for HHC was included as solvent control. At each time point (6, 12, 18, 24, 32 hrs post-drug addition), cells were observed under the microscope for possible effect of HHC on Leishmanial motility. Aliquots of cells (100 μl) were removed from each flask at each time point, diluted as mentioned above and cell numbers were quantitated using a hemocytometer.

[2] = tested on: M. tuberculosis (ATCC 27294); assay: BACTEC drug susceptibility, M. tuberculosis; format: cell-based; settings: Mycobacterium tuberculosis, ATCC27294
[3] = tested on: Listeria monocytogenes; settings: U.S. Pat. Nos. 5,286,506; 5,455,038; cited from earlier work
[4] = tested on: MCF-7 cells; assay: Fluorescence activated cell sorting (FACS), cell cycle phase; format: cell-based, human; settings: for cell cycle phase distribution: 48 hours
Method: Fluorescence activated cell sorting (FACS) was used to determine what percentage of cells could be found in the designated cell cycle phase after 48 hours of continuous HHC exposure. There are four distinct phases in the cell cycle which lead to duplication of the cell and its genetic material. In the G0/G1 phase the cell is at rest or is performing miscellaneous biosynthetic functions. During the S phase, DNA synthesis occurs which leads to replication of the chromosomes. G2 is the pre-mitotic interval while the M phase is the time during which the cell divides.
MCF-7 cells were exposed to concentrations of 1.5 μM and 25 μM of HHC, and DMSO. DMSO had no significant effect on the cell cycle, with a profile almost identical to that of the "no drug" control.

[5] = tested on: Multidrug resistant Staphylococcus (except to Vancomycin); assay: Minimum inhibitory concentration, multidrug resistant Staphylococcus; format: cell-based
[6] = tested on: VRE (Vancomycin Resistant Enterococcus faeclum); assay: microbe, parasite or virus in culture
Method: HHC was also tested for effectiveness against various bacterial isolates obtained from human subjects.

[7] = tested on: VRE (Vancomycin resistant enterococcus); assay: Minimum inhibitory concentration, VRE; format: cell-based
[8] = tested on: E. Coli; assay: Minimum inhibitory concentration, E. coli; settings: Escherichia coli
[9] = tested on: BDF1 mice; assay: Determination of maximal tolerated dose (MTD), single intraperitoneal injection; settings: mouse, in vivo, ip
Method: (§1) Eight groups of BDF1 mice (5 animals/group) were used to determine a maximal tolerated dose (MTD) for HHC.
(§2) All mice were weighed, the weight being used to determine blood volume for each animal. The amount of drug necessary to achieve a theoretical concentration of drug in the animal (e.g, 50, 100, 150 μM etc.) was calculated based on the formula: blood volume=8% body weight of the animal. Drug solutions were made using DMSO as the solvent and a single intraperitoneal injection of a volume of 100-120 μl was given. […] Based on the above, the MTD is determined to be at 200 μM (~6.5 mg/kg). To confirm the MTD, it is necessary to dose the animals with the predetermined MTD once a day for consecutive days following established experimental treatment times (i.e., 5 days for in vivo tumor inhibition studies).

[10] = as above; settings: mouse, in vivo, ip
Method: as §1, §2

[11] = tested on: CEM vinblastin resistant cells; assay: Trypan blue exclusion assay, cytostatic activity, CEM vinblastin resistant; format: cell-based; settings: Homo sapiens; CEM vin resistant; incubation 48h; 4 experiments; read-out: ID50 (the source's name)

## CC(C)CCC1=C(O)C(C(=O)C(C)C)=C(O)C(CCC(C)C)(CCC(C)C)C1=O [HHC, hexahydrocolupulone]
[1]; 0.1 μM, 6 hr
  cells/ml: 2.65 no. of cells × 10^6
  activity at 0.1 µM: 76.4%
[1]; 0.1 μM, 12 hr
  cells/ml: 6.58 no. of cells × 10^6
  activity at 0.1 µM: 96.6%
[1]; 0.1 μM, 18 hr
  cells/ml: 12.1 no. of cells × 10^6
  activity at 0.1 µM: 96.8%
[1]; 0.1 μM, 24 hr
  cells/ml: 21.2 no. of cells × 10^6
  activity at 0.1 µM: 118%
[1]; 0.1 μM, 32 hr
  cells/ml: 43.9 no. of cells × 10^6
  activity at 0.1 µM: 114%
[1]; 0.25 μM, 6 hr
  cells/ml: 3.0 no. of cells × 10^6
  activity at 0.25 µM: 86.5%
[1]; 0.25 μM, 12 hr
  cells/ml: 7.35 no. of cells × 10^6
  activity at 0.25 µM: 103%
[1]; 0.25 μM, 18 hr
  cells/ml: 12.7 no. of cells × 10^6
  activity at 0.25 µM: 101%
[1]; 0.25 μM, 24 hr
  cells/ml: 19.72 no. of cells × 10^6
  activity at 0.25 µM: 110%
[1]; 0.25 μM, 32 hr
  cells/ml: 40.1 no. of cells × 10^6
  activity at 0.25 µM: 104%
[1]; 0.5 μM, 6 hr
  cells/ml: 2.43 no. of cells × 10^6
  activity at 0.5 µM: 70%
[1]; 0.5 μM, 12 hr
  cells/ml: 5.13 no. of cells × 10^6
  activity at 0.5 µM: 72.1%
[1]; 0.5 μM, 18 hr
  cells/ml: 9.22 no. of cells × 10^6
  activity at 0.5 µM: 73.8%
[1]; 0.5 μM, 24 hr
  cells/ml: 14.2 no. of cells × 10^6
  activity at 0.5 µM: 79.3%
[1]; 0.5 μM, 32 hr
  cells/ml: 29.2 no. of cells × 10^6
  activity at 0.5 µM: 75.6%
[1]; 1.0 μM, 6 hr
  cells/ml: 2.09 no. of cells × 10^6
  activity at 1 µM: 60.2%
[1]; 1.0 μM, 12 hr
  cells/ml: 2.53 no. of cells × 10^6
  activity at 1 µM: 35.5%
[1]; 1.0 μM, 18 hr
  cells/ml: 2.55 no. of cells × 10^6
  activity at 1 µM: 20.4%
[1]; 1.0 μM, 24 hr
  cells/ml: 2.9 no. of cells × 10^6
  activity at 1 µM: 16.2%
[1]; 1.0 μM, 32 hr
  cells/ml: 3.4 no. of cells × 10^6
  activity at 1 µM: 8.8%
[1]; 2.5 μM, 6 hr
  cells/ml: 1.81 no. of cells × 10^6
  activity at 2.5 µM: 52.2%
[1]; 2.5 μM, 12 hr
  cells/ml: 3.03 no. of cells × 10^6
  activity at 2.5 µM: 42.6%
[1]; 2.5 μM, 18 hr
  cells/ml: 3.38 no. of cells × 10^6
  activity at 2.5 µM: 27%
[1]; 2.5 μM, 24 hr
  cells/ml: 2.13 no. of cells × 10^6
  activity at 2.5 µM: 11.9%
[1]; 2.5 μM, 32 hr
  cells/ml: 2.82 no. of cells × 10^6
  activity at 2.5 µM: 7.3%
[2]; 50 μM, read-out: inhibition of tuberculosis growth
  inhibition at 50 µM: > 99%
[2]; 100 μM, read-out: inhibition of TB growth
  inhibition at 100 µM: 100%
[3]
  growth inhibition of food pathogens: can inhibit the growth of food pathogens, such as Listeria monocytogenes
[4]; 1.5 μM HHC
  cell cycle phase distribution: increase the number of cells in G0/G1 and decrease the number of cells in S phase
[4]; 25 μM HHC
  cell cycle phase distribution: decrease in the number of cells in G0/G1 and an increase in the number of cells in S phase
[4]; FACS
  effect upon G1-S phase transition: apparent effect upon the G1-S phase transition of the cell cycle; also recorded: has an effect upon the G1-S phase transition of the cell cycle
[5]
  MIC: 2.5 µM (≈ 1.02 µg/mL)
[6]; read-out: [HHC] (MIC), patient A, VRE
  MIC: 1.01 µg/mL (≈ 2.5 µM)
[6]; read-out: [HHC] (MIC), patient B, VRE
  MIC: 4.06 µg/mL (≈ 9.99 µM)
[6]; read-out: [HHC] (MIC), patient C, VRE
  MIC: 2.03 µg/mL (≈ 4.99 µM)
[7]
  cross resistance with vancomycin: not cross resistant with vancomycin
[7]; Enterococcus
  MIC: 5 µM (≈ 2.03 µg/mL)
[8]
  MIC: > 100 µM
[8]; read-out: MIC, HHC negative control
  MIC: 100 µg/mL
[9]
  maximal tolerated dose (MTD): 200 µM
[10]
  MTD: ~6.5 mg/kg
[11]
  pIC50: 5.58
